Source: the NIST ThermoML archive (doi:10.1016/j.jct.2015.01.012)
Values joined by “and” are separate entries in the source; they are usually repeats but may differ in a detail not shown here. Equal entries are not always repeated.

Conditions: Crystal, Calculated from knudsen effusion weight loss

CCn1c(-c2ccccc2)cc2ccccc21 [1-ethyl-2-phenylindole]
Conditions	vapor or sublimation pressure
327.18 K	7.2e-05 kPa and 6.9e-05 kPa and 7.1e-05 kPa
329.18 K	9.5e-05 kPa and 9.1e-05 kPa and 8.9e-05 kPa
331.09 K	0.000115 kPa and 0.000114 kPa and 0.000119 kPa
333.18 K	0.000144 kPa and 0.000143 kPa and 0.000145 kPa
335.18 K	0.00019 kPa and 0.000184 kPa and 0.000192 kPa
337.19 K	0.000239 kPa and 0.00024 kPa
339.17 K	0.000291 kPa and 0.000287 kPa and 0.000307 kPa
341.17 K	0.000379 kPa and 0.000368 kPa and 0.000387 kPa
343.08 K	0.000472 kPa and 0.000478 kPa
345.16 K	0.000624 kPa and 0.000605 kPa and 0.000625 kPa
347.08 K	0.000779 kPa and 0.000766 kPa and 0.000775 kPa
349.08 K	0.000974 kPa and 0.000987 kPa and 0.000986 kPa

Cn1c(-c2ccccc2)cc2ccccc21 [1-methyl-2-phenylindole]
Conditions	vapor or sublimation pressure
331.17 K	7.4e-05 kPa and 7.7e-05 kPa
333.17 K	0.000104 kPa and 0.000102 kPa and 9.9e-05 kPa
335.1 K	0.00013 kPa and 0.000126 kPa and 0.000128 kPa
337.18 K	0.000157 kPa and 0.000154 kPa and 0.000158 kPa
339.21 K	0.000204 kPa and 0.000197 kPa and 0.000214 kPa
341.12 K	0.000252 kPa and 0.000254 kPa and 0.000251 kPa
343.17 K	0.000316 kPa and 0.000308 kPa and 0.000323 kPa
345.14 K	0.000404 kPa and 0.00039 kPa and 0.000414 kPa
347.08 K	0.000497 kPa and 0.000501 kPa and 0.000494 kPa
349.17 K	0.000593 kPa and 0.000586 kPa and 0.000585 kPa
351.21 K	0.000772 kPa and 0.000745 kPa
353.12 K	0.00092 kPa and 0.000943 kPa and 0.000939 kPa

c1ccc(-c2cc3ccccc3[nH]2)cc1 [2-phenyl-1H-indole]
Conditions	vapor or sublimation pressure
360.16 K	0.000122 kPa and 0.000119 kPa and 0.000116 kPa
362.11 K	0.000157 kPa and 0.000149 kPa and 0.000155 kPa
364.08 K	0.000184 kPa and 0.000182 kPa and 0.000176 kPa
366.16 K	0.000217 kPa and 0.000214 kPa and 0.000227 kPa
368.13 K	0.00027 kPa and 0.000262 kPa and 0.000278 kPa
370.1 K	0.000331 kPa and 0.000325 kPa and 0.000324 kPa
372.16 K	0.000392 kPa and 0.000393 kPa and 0.000412 kPa
374.12 K	0.000491 kPa and 0.000456 kPa and 0.0005 kPa
376.1 K	0.00059 kPa and 0.000574 kPa and 0.000592 kPa
378.15 K	0.000701 kPa and 0.000693 kPa and 0.000735 kPa
380.12 K	0.000868 kPa and 0.000885 kPa and 0.000832 kPa
382.1 K	0.001023 kPa and 0.001052 kPa and 0.001046 kPa
